The target of assay [1] is T1, WRN [UniPro: Q14191 (WRN_HUMAN), N500-C946] (Homo sapiens (Human), UniProt Q14191). Kind of assay: WRN ATPase assay (ADP-Glo). The conditions noted are these: WRN enzymatic activity assay. It counts as biochemical. In general terms: ADP-Glo turns the ADP formed in a reaction into a luminescent signal.
Assay [2] has as its target T1, WRN [UniPro: Q14191 (WRN_HUMAN), N500-C946]. Kind of assay: WRN unwinding assay (FORKF DNA, fluorescence). The following applies: Table 14. The assay is classed as biochemical.

Among the data in patent US20260015358A1, “BICYCLIC DERIVATIVES, COMPOSITIONS AND USES THEREOF” (Danatlas Pharmaceuticals Co., Ltd., priority 2023, published 2026) are IC50 values, retold here.

Each structure is given as a SMILES string.

T1 sequence (Q14191 500-946): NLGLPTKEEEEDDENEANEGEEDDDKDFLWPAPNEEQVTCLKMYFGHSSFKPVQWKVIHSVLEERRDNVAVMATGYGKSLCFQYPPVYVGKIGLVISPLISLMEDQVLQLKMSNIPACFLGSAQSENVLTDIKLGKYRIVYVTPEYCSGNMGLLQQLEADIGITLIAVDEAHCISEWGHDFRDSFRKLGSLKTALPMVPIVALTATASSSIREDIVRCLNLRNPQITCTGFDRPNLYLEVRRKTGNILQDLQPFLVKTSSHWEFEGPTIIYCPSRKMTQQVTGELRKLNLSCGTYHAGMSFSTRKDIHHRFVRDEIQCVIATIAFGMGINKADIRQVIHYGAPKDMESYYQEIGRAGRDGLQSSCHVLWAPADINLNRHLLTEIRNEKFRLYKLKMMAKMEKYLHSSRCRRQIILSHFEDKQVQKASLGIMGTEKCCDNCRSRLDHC

As usually defined, the IC50 is the point on the concentration scale where inhibition reaches its midpoint. On to `CCc1c(N2CCN(C(=O)C(=O)NC3CC3)CC2)c(=O)n2nc(C3=CCOCC3)nc2n1CC(=O)Nc1ccc(C(F)(F)F)cc1Cl` [Example 359, 2-(4-(4-(2-((2-Chloro-4-(trifluoromethyl)phenyl)amino)-2-oxoethyl)-2-(3,6-dihydro-2H-pyran-4-yl)-5-ethyl-7-oxo-4,7-dihydro-[1,2,4]triazolo[1,5-a]pyrimidin-6-yl)piperazin-1-yl)-N-cyclopropyl-2-oxoacetamide], for which the IC50 in assay [1] and in assay [2] was 100 to 1000 nM in each case.

With `CCc1c(N2CCN(C(=O)C(=O)NCC(F)(F)F)CC2)c(=O)n2nc(C3=CCOCC3)nc2n1CC(=O)Nc1ccc(C(F)(F)F)cc1Cl` [Example 360, 2-(4-(4-(2-((2-Chloro-4-(trifluoromethyl)phenyl)amino)-2-oxoethyl)-2-(3,6-dihydro-2H-pyran-4-yl)-5-ethyl-7-oxo-4,7-dihydro-[1,2,4]triazolo[1,5-a]pyrimidin-6-yl)piperazin-1-yl)-2-oxo-N-(2,2,2-trifluoroethyl)acetamide], the IC50 in assay [1] and in assay [2] was greater than 1000 nM each time.

`CCc1c(N2CCN(C(=O)CNC(=O)c3nc(NC)ccc3F)CC2)c(=O)n2nc(C3=CCOCC3)nc2n1CC(=O)Nc1ccc(C(F)(F)F)cc1Cl` [Example 361, N-(2-(4-(4-(2-((2-Chloro-4-(trifluoromethyl)phenyl)amino)-2-oxoethyl)-2-(3,6-dihydro-2H-pyran-4-yl)-5-ethyl-7-oxo-4,7-dihydro-[1,2,4]triazolo[1,5-a]pyrimidin-6-yl)piperazin-1-yl)-2-oxoethyl)-3-fluoro-6-(methylamino) picolinamide]: the IC50 in assay [1] and in assay [2] was less than 100 nM throughout.

In the case of `CCc1c(N2CCN(C(=O)CNc3ncnc4cccnc34)CC2)c(=O)n2nc(C3=CCOCC3)nc2n1CC(=O)Nc1ccc(C(F)(F)F)cc1Cl` [Example 362, N-(2-Chloro-4-(trifluoromethyl)phenyl)-2-(2-(3,6-dihydro-2H-pyran-4-yl)-5-ethyl-7-oxo-6-(4-(pyrido[3,2-d]pyrimidin-4-ylglycyl)piperazin-1-yl)-[1,2,4]triazolo[1,5-a]pyrimidin-4(7H)-yl)acetamide], the half-inhibitory concentration (IC50) in assay [1] is 100 to 1000 nM; in assay [2], less than 100 nM.

In the case of `CCc1c(N2CCN(C(=O)CNc3ncnc4[nH]ccc34)CC2)c(=O)n2nc(C3=CCOCC3)nc2n1CC(=O)Nc1ccc(C(F)(F)F)cc1Cl` [Example 363, 2-(6-(4-((7H-Pyrrolo[2,3-d]pyrimidin-4-yl)glycyl)piperazin-1-yl)-2-(3,6-dihydro-2H-pyran-4-yl)-5-ethyl-7-oxo-[1,2,4]triazolo[1,5-a]pyrimidin-4(7H)-yl)-N-(2-chloro-4-(trifluoromethyl)phenyl)acetamide], the concentration for half-maximal inhibition (IC50) in assay [1] and in assay [2] was greater than 1000 nM throughout.

As for `CCc1c(N2CCN(C(=O)CNC(=O)c3ncncc3O)CC2)c(=O)n2nc(C3=CCOCC3)nc2n1CC(=O)Nc1ccc(C(F)(F)F)cc1Cl` [Example 364, N-(2-(4-(4-(2-((2-Chloro-4-(trifluoromethyl)phenyl)amino)-2-oxoethyl)-2-(3,6-dihydro-2H-pyran-4-yl)-5-ethyl-7-oxo-4,7-dihydro-[1,2,4]triazolo[1,5-a]pyrimidin-6-yl)piperazin-1-yl)-2-oxoethyl)-5-hydroxypyrimidine-4-carboxamide], the IC50 in assay [1] and in assay [2] was less than 100 nM in each case.

On to `CCc1c(N2CCN(C(=O)CNC(=O)c3[nH]c(=O)ccc3F)CC2)c(=O)n2nc(C3=CCOCC3)nc2n1CC(=O)Nc1ccc(C(F)(F)F)cc1Cl` [Example 365, N-(2-(4-(4-(2-((2-Chloro-4-(trifluoromethyl)phenyl)amino)-2-oxoethyl)-2-(3,6-dihydro-2H-pyran-4-yl)-5-ethyl-7-oxo-4,7-dihydro-[1,2,4]triazolo[1,5-a]pyrimidin-6-yl)piperazin-1-yl)-2-oxoethyl)-3-fluoro-6-oxo-1,6-dihydropyridine-2-carboxamide], for which the IC50 in assay [1] is 100 to 1000 nM; in assay [2] it was less than 100 nM.

As to `CCc1c(N2CCN(C(=O)CNC(=O)c3cccc(=O)[nH]3)CC2)c(=O)n2nc(C3=CCOCC3)nc2n1CC(=O)Nc1ccc(C(F)(F)F)cc1Cl` [Example 366, N-(2-(4-(4-(2-((2-Chloro-4-(trifluoromethyl)phenyl)amino)-2-oxoethyl)-2-(3,6-dihydro-2H-pyran-4-yl)-5-ethyl-7-oxo-4,7-dihydro-[1,2,4]triazolo[1,5-a]pyrimidin-6-yl)piperazin-1-yl)-2-oxoethyl)-6-oxo-1,6-dihydropyridine-2-carboxamide], the 50% inhibitory concentration (IC50) in assay [1] and in assay [2] was less than 100 nM in each case.

As to `CCc1c(N2CCN(C(=O)CNC(=O)c3nc(N)ccc3F)CC2)c(=O)n2nc(C3=CCOCC3)nc2n1CC(=O)Nc1ccc(C(F)(F)F)cc1Cl` [Example 367, 6-Amino-N-(2-(4-(4-(2-((2-chloro-4-(trifluoromethyl)phenyl)amino)-2-oxoethyl)-2-(3,6-dihydro-2H-pyran-4-yl)-5-ethyl-7-oxo-4,7-dihydro-[1,2,4]triazolo[1,5-a]pyrimidin-6-yl)piperazin-1-yl)-2-oxoethyl)-3-fluoropicolinamide], the IC50 in assay [1] and in assay [2] was less than 100 nM each time.

In the case of `CCc1c(N2CCN(C(=O)CNC(=O)c3nc(C)ncc3O)CC2)c(=O)n2nc(C3=CCOCC3)nc2n1CC(=O)Nc1ccc(C(F)(F)F)cc1Cl` [Example 368, N-(2-(4-(4-(2-((2-Chloro-4-(trifluoromethyl)phenyl)amino)-2-oxoethyl)-2-(3,6-dihydro-2H-pyran-4-yl)-5-ethyl-7-oxo-4,7-dihydro-[1,2,4]triazolo[1,5-a]pyrimidin-6-yl)piperazin-1-yl)-2-oxoethyl)-5-hydroxy-2-methylpyrimidine-4-carboxamide], the IC50 in assay [1] and in assay [2] was less than 100 nM throughout.

For the compound `CCc1c(N2CCN(C(=O)CNC(=O)c3ccns3)CC2)c(=O)n2nc(C3=CCOCC3)nc2n1CC(=O)Nc1ccc(C(F)(F)F)cc1Cl` [Example 369, N-(2-(4-(4-(2-((2-Chloro-4-(trifluoromethyl)phenyl)amino)-2-oxoethyl)-2-(3,6-dihydro-2H-pyran-4-yl)-5-ethyl-7-oxo-4,7-dihydro-[1,2,4]triazolo[1,5-a]pyrimidin-6-yl)piperazin-1-yl)-2-oxoethyl) isothiazole-5-carboxamide], the IC50 in assay [1] and in assay [2] was less than 100 nM in each case.

Regarding `CCc1c(N2CCN(C(=O)CNC(=O)c3ccno3)CC2)c(=O)n2nc(C3=CCOCC3)nc2n1CC(=O)Nc1ccc(C(F)(F)F)cc1Cl` [Example 370, N-(2-(4-(4-(2-((2-Chloro-4-(trifluoromethyl)phenyl)amino)-2-oxoethyl)-2-(3,6-dihydro-2H-pyran-4-yl)-5-ethyl-7-oxo-4,7-dihydro-[1,2,4]triazolo[1,5-a]pyrimidin-6-yl)piperazin-1-yl)-2-oxoethyl) isoxazole-5-carboxamide], the IC50 in assay [1] and in assay [2] was less than 100 nM each time.

As to `CCc1c(N2CCN(C(=O)CNC(=O)c3ccon3)CC2)c(=O)n2nc(C3=CCOCC3)nc2n1CC(=O)Nc1ccc(C(F)(F)F)cc1Cl` [Example 371, N-(2-(4-(4-(2-((2-Chloro-4-(trifluoromethyl)phenyl)amino)-2-oxoethyl)-2-(3,6-dihydro-2H-pyran-4-yl)-5-ethyl-7-oxo-4,7-dihydro-[1,2,4]triazolo[1,5-a]pyrimidin-6-yl)piperazin-1-yl)-2-oxoethyl) isoxazole-3-carboxamide], the IC50 in assay [1] and in assay [2] was less than 100 nM throughout.
